Several values for one entry are separate records, joined by “and”; a condition that tells them apart may be missing. Equal values may be shown once. Records with an inconclusive call do not appear.
Test system: BDF1 mice, colon carcinoma 38 sc, T/C %
Test: NCI In Vivo Anticancer Drug Screen. Data for tumor model Colon Carcinoma 38 (subcutaneous) in B6D2F1 (BDF1) mice
Conditions: endpoint: median tumor weight (est.), higher = larger tumour
Summary of the method: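 Transplantable tumor in mice; compound-treated vs vehicle-dosed controls. Measured survival or tumor size; value = T ÷ C.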

[1] = dose: 50.0 mg/kg/injection, schedule: Q07DX002 (ip), vehicle: saline with Tween-80
[2] = dose: 100.0 mg/kg/injection, schedule: Q07DX002 (ip), vehicle: saline with Tween-80
[3] = dose: 200.0 mg/kg/injection, schedule: Q07DX002 (ip), vehicle: saline with Tween-80
[4] = dose: 400.0 mg/kg/injection, schedule: Q07DX002 (ip), vehicle: saline with Tween-80

Compound: CN=S(=O)(OCCCCCOS(=O)(=NC)c1ccc(C)cc1)c1ccc(C)cc1 (configuration not stated)
- T/C [1]: 71 % of control and 94 % of control
- T/C [2]: 65 % of control and 89 % of control
- T/C [3]: 96 % of control
- T/C [4]: 61 % of control

Compound: COc1ccc(OC)c(/C=C/c2ccnc3ccccc23)c1
- T/C (dose: 12.5 mg/kg/injection, schedule: Q07DX002 (ip), vehicle: saline with Tween-80): 152 % of control
- T/C (dose: 25.0 mg/kg/injection, schedule: Q07DX002 (ip), vehicle: saline with Tween-80): 101 % of control
- T/C [1]: 86 % of control
- T/C [2]: 116 % of control
- T/C [3]: 111 % of control
- T/C [4]: 75 % of control

Compound: CCC1(O)CC2CN(CCc3c([nH]c4ccccc34)C(C(=O)OC)(c3cc4c(cc3OC)N(C)C3C(O)(C(N)=O)C(O)C5(CC)C=CCN6CCC43C65)C2)C1 (configuration not stated) (tested in a mixture with another compound)
- T/C (dose: 0.12 mg/kg/injection, schedule: Q07DX002 (ip), vehicle: water): 87 % of control
- T/C (dose: 0.5 mg/kg/injection, schedule: Q07DX002 (ip), vehicle: water): 119 % of control and 94 % of control
- T/C (dose: 2.0 mg/kg/injection, schedule: Q07DX002 (ip), vehicle: water): 36 % of control and 48 % of control
- T/C (dose: 4.0 mg/kg/injection, schedule: Q07DX002 (ip), vehicle: water): 5 % of control and 15 % of control

Compound: C/C(=C\c1ccccc1)[N+](=O)[O-]
- T/C (dose: 12.5 mg/kg/injection, schedule: Q07DX003 (ip), vehicle: Klucel (hydroxypropylcellulose) (HPC)): 81 % of control
- T/C (dose: 25.0 mg/kg/injection, schedule: Q07DX003 (ip), vehicle: Klucel (hydroxypropylcellulose) (HPC)): 79 % of control and 91 % of control
- T/C (dose: 50.0 mg/kg/injection, schedule: Q07DX003 (ip), vehicle: Klucel (hydroxypropylcellulose) (HPC)): 82 % of control and 90 % of control

Compound: Nc1nc2n[nH]nc2c(=O)[nH]1
- T/C (dose: 50.0 mg/kg/injection, schedule: Q07DX002 (ip), vehicle: suspension in saline): 64 % of control
- T/C (dose: 100.0 mg/kg/injection, schedule: Q07DX002 (ip), vehicle: suspension in saline): 80 % of control
- T/C (dose: 200.0 mg/kg/injection, schedule: Q07DX002 (ip), vehicle: suspension in saline): 57 % of control
- T/C (dose: 400.0 mg/kg/injection, schedule: Q07DX002 (ip), vehicle: suspension in saline): 51 % of control

Compound: CCN(Cc1ccc(Cl)c(Cl)c1)c1ccc2nc(N)nc(N)c2c1C
- T/C (dose: 6.25 mg/kg/injection, schedule: Q07DX002 (ip), vehicle: distilled water + Tween-80): 165 % of control
- T/C (dose: 12.5 mg/kg/injection, schedule: Q07DX002 (ip), vehicle: distilled water + Tween-80): 206 % of control
- T/C (dose: 100.0 mg/kg/injection, schedule: Q07DX002 (ip), vehicle: distilled water + Tween-80): 46 % of control

Compound: COc1cc([C@@H]2c3cc4c(c(O)c3C[C@H]3COC(=O)[C@@H]32)OCO4)cc(OC)c1O
- T/C (dose: 0.5 mg/kg/injection, schedule: Q07DX002 (ip), vehicle: saline): 78 % of control
- T/C (dose: 1.0 mg/kg/injection, schedule: Q07DX002 (ip), vehicle: saline): 65 % of control
- T/C (dose: 2.0 mg/kg/injection, schedule: Q07DX002 (ip), vehicle: saline): 81 % of control
- T/C (dose: 4.0 mg/kg/injection, schedule: Q07DX002 (ip), vehicle: saline): 123 % of control

Compound: O=C(O)C(O)C(O)C1[O][Sb][O]C1C(=O)O (configuration not stated)
- T/C (dose: 12.5 mg/kg/injection, schedule: Q07DX002 (ip), vehicle: saline): 90 % of control
- T/C (dose: 25.0 mg/kg/injection, schedule: Q07DX002 (ip), vehicle: saline): 35 % of control
- T/C (dose: 50.0 mg/kg/injection, schedule: Q07DX002 (ip), vehicle: saline): 109 % of control
- T/C (dose: 100.0 mg/kg/injection, schedule: Q07DX002 (ip), vehicle: saline): 85 % of control

Compound: CC(=O)C1=C(O)C2(O)C(=O)c3c(c(C)c4ccc(C)c(O)c4c3O)CC2C(N)C1=O (configuration not stated)
- T/C (dose: 7.5 mg/kg/injection, schedule: Q07DX002 (ip), vehicle: saline + alcohol): 79 % of control and 95 % of control
- T/C (dose: 15.0 mg/kg/injection, schedule: Q07DX002 (ip), vehicle: saline + alcohol): 87 % of control and 106 % of control
- T/C (dose: 60.0 mg/kg/injection, schedule: Q07DX002 (ip), vehicle: saline + alcohol): 95 % of control and 107 % of control
- T/C (dose: 120.0 mg/kg/injection, schedule: Q07DX002 (ip), vehicle: saline + alcohol): 87 % of control

Compound: COC1CC(CC2CCC(C)C(C(C)C(=O)O)O2)OC2(OC(C)(C3CCC(C)(C4OC(C5OC(O)(CO)C(C)CC5C)CC4C)O3)CC2C)C1C (configuration not stated)
- T/C (dose: 0.3 mg/kg/injection, schedule: Q07DX002 (ip), vehicle: Klucel (hydroxypropylcellulose) (HPC)): 61 % of control
- T/C (dose: 0.31 mg/kg/injection, schedule: Q07DX002 (ip), vehicle: Klucel (hydroxypropylcellulose) (HPC)): 42 % of control
- T/C (dose: 1.25 mg/kg/injection, schedule: Q07DX002 (ip), vehicle: Klucel (hydroxypropylcellulose) (HPC)): 74 % of control and 82 % of control
- T/C (dose: 2.5 mg/kg/injection, schedule: Q07DX002 (ip), vehicle: Klucel (hydroxypropylcellulose) (HPC)): 58 % of control and 70 % of control
- T/C (dose: 5.0 mg/kg/injection, schedule: Q07DX002 (ip), vehicle: Klucel (hydroxypropylcellulose) (HPC)): 46 % of control and 55 % of control
- T/C (dose: 10.0 mg/kg/injection, schedule: Q07DX002 (ip), vehicle: Klucel (hydroxypropylcellulose) (HPC)): 52 % of control

— PubChem BioAssay AID212 (DTP/NCI, 2004)
